For assay [1], the system named is p97-dependent Ub^G76V-GFP degradation in HeLa cells. In words: Ub^G76V-GFP degradation (turn-over) assay. It counts as cell-based, human. The protocol: Ub^G76V-GFP Degradation Assay
Two GFP images with 100 ms exposure time per well were acquired and the average GFP intensity per area of a HeLa cell was determined by using MetaXpress software. Mean GFP intensity of 300-500 cells was calculated using Excel. Normalized GFP intensity was calculated using the following formula: (Test compound−Background)/(Basal GFP intensity—Background). Where: Test compound is defined as Mean GFP intensity of Ub^G76V-GFP-expressing cells treated with the test compound. Background is defined as background GFP intensity of HeLa cells. Basal GFP intensity is defined as mean GFP intensity of Ub^G76V-GFP-expressing cells treated with DMSO. […] The percent of remaining k for each compound is calculated using the following formula: (Test compound/DMSO control)*100. Where: Test_compound is defined as k determined from wells containing test compound, DMSO control is defined as k determined from wells containing DMSO.

The next assay addresses p97 (Homo sapiens, UniProt P55072). Kind of assay: p97 ATPase assay (Kinase Glo Plus; biomol green for compounds that interfere with luciferase). In kind it is biochemical. Here is the method:
Assay Buffer (20 μL of 2.5× concentration, where 1×=50 mM Tris pH 7.4, 20 mM MgCl2, 1 mM EDTA, 0.5 mM TCEP) was dispensed into each well of a 96 well plate. Purified p97 (25 μL of 50 μM) was diluted in 975 μL, of 1× Assay Buffer and 10 μL was dispensed in each well. Test compound (10 μL) or 5% DMSO (10 μL) was then added to each well and the plate was incubated at room temperature for 10 min. The ATPase assay was carried out by adding to each well 10 μL of 500 μM ATP (pH 7.5), incubating at room temperature for 60 min, and then adding 50 μL Kinase Glo Plus reagent (Promega) followed by a final 10 min incubation at room temperature in the dark. Luminescence was read on an Analyst AD (Molecular Devices). Compounds were assayed at a range of concentrations (0, 0.048, 0.24, 1.2, 6, 30 μM) in triplicate. The percent of remaining activity for each reaction was calculated using the following mathematical expression: ((Test Compound-High Control)/(Low Control-High Control))*100. Test_Compound is defined as wells containing test compound, Low_Control is defined as wells containing DMSO, High_Control is defined as wells containing no p97 protein. […] The result was expressed as mean +/− standard error. For assays with Myriad 12 and 19, 100 μL of biomol green reagent (Enzo Life Sciences) was added to each well instead of kinase Glo Plus (Promega) and absorbance at 630 nm was measured. This was done because these compounds interfered with luciferase activity. […]
For orientation: Kinase-Glo reads ATP consumption through a luciferase reaction.

The mark [2] stands for this setting: Homo sapiens, HeLa, read-out: IC50 (μM) Ub^G76V-GFP turn over, p97-dependent Ub^G76V-GFP degradation turn-over assay.
Setting [3] is: Homo sapiens, HeLa, read-out: IC50 (μM) Ub^G76V-GFP turn over, Ub^G76V-GFP-expressing HeLa cells, degradation rate constant k from 90 to 180 min, mean +/- standard error.
The mark [4] stands for this setting: purified p97, ATP, 60 min room temperature, mean +/- standard error.

Each structure is given as a SMILES string. Several values for one entry are separate records, joined by “and”; a condition that tells them apart may be missing. Equal entries are not always repeated. Where two headings read alike, the source gives them in different places. A value given as a limit tells only on which side of the number the result lay.

Sequence of p97 (P55072 2-806 limits assumed): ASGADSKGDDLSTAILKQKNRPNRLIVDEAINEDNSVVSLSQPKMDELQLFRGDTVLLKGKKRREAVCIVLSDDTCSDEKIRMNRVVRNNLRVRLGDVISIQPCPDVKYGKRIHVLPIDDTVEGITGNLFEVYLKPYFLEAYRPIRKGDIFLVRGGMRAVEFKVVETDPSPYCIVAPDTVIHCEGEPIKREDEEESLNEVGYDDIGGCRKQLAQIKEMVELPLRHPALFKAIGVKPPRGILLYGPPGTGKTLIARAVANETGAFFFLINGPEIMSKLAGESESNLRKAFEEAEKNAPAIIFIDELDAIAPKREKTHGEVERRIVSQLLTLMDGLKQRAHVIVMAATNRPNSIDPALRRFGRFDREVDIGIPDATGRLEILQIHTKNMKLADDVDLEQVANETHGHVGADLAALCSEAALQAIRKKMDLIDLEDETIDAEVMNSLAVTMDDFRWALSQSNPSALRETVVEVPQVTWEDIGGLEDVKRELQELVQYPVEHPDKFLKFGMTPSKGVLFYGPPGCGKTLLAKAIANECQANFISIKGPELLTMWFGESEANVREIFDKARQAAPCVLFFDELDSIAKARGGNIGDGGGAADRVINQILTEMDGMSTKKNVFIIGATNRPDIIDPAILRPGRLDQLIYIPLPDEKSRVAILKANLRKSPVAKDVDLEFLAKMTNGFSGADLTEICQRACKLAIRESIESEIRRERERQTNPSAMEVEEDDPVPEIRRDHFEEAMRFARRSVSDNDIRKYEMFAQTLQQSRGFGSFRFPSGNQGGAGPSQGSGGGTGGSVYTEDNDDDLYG

For `Clc1cccc(CNc2nc(-c3ccccc3)nc3ccccc23)c1` [Cpd I-12], the IC50 in assay [1] (setting [2]) is 17 ± 4 µM; on p97 (p97 ATPase assay), 28 ± 9 µM.
Regarding `Clc1ccccc1CNc1nc(-c2ccccc2)nc2ccccc12` [Cpd I-14], the IC50 in assay [1] (setting [2]) was 11 ± 3 µM.
For the compound `Clc1ccc(CNc2nc(-c3ccccc3)nc3ccccc23)cc1` [Cpd I-15], the IC50 in assay [1] (setting [2]) is 15 ± 3 µM; at p97 (p97 ATPase assay), over 30 µM.
The corresponding values for `Fc1ccccc1-c1nc(NCc2ccccc2Cl)c2ccccc2n1` [Cpd I-16] are 15 ± 3 µM and 26 ± 12 µM.
On to `CN(Cc1ccccc1)c1nc(-c2ccccc2)nc2ccccc12` [Cpd I-25], for which, in assay [1] (setting [2]), the half-inhibitory concentration (IC50) came out at 17 ± 5 µM.
As for `CN(Cc1ccccc1)c1nc(-c2ccccc2F)nc2ccccc12` [Cpd I-26], the IC50 in assay [1] (setting [2]) is 6 ± 2 µM; at p97 (p97 ATPase assay), 25 ± 4 µM.
On to `CN(Cc1ccccc1)c1nc(-c2ccccc2[N+](=O)[O-])nc2ccccc12` [Cpd I-27], for which the IC50 in assay [1] (setting [2]) came out at 11 ± 6 µM; at p97 (p97 ATPase assay) it was 25 ± 11 µM.
Consider `CC(Nc1nc(-c2ccccc2)nc2ccccc12)c1ccccc1` (stereo not drawn) [Cpd I-29], for which the values for the half-maximal inhibitory concentration (IC50) (in assay [1] (setting [2]); at p97 (p97 ATPase assay)) were 13 ± 1 µM and 27 ± 14 µM, respectively.
The corresponding values for `CC(Nc1nc(-c2ccccc2F)nc2ccccc12)c1ccccc1` (stereo not drawn) [Cpd I-31] are 15 ± 4 µM and over 30 µM.
For the compound `Clc1ccc2c(NCc3ccccc3)nc(-c3ccccc3)nc2c1` [Cpd I-32], in assay [1] (setting [2]), the half-inhibitory concentration (IC50) is 12 ± 4 µM.
As for `c1ccc(-c2nc(N3CCc4ccccc4C3)c3ccccc3n2)cc1` [Cpd I-35], the half-maximal inhibitory concentration (IC50) in assay [1] (setting [2]) was 19 ± 5 µM; on p97 (p97 ATPase assay) it was over 30 µM.
For the compound `Fc1ccccc1-c1nc(NCc2ccccc2)c2ccccc2n1` [I-1], the half-maximal inhibitory concentration (IC50) was 8 ± 1.7 µM in assay [1] (setting [3]); 9 ± 1.3 µM in assay [1] (read-out: IC50 (μM) Ub^G76V-GFP turn over, Ub^G76V-GFP-expressing HeLa cells, degradation rate constant k from 90 to 180 min, mean +/- standard error); 1.1 µM and 3 µM on p97 (setting [4]).
`c1ccc(CNc2nc(-c3ccccc3)nc3ccccc23)cc1` [I-2]: the IC50 in assay [1] (setting [3]) was 12 ± 3 µM; at p97 (setting [4]), 4.2 ± 2.3 µM.
In the case of `Clc1ccccc1-c1nc(NCc2ccccc2)c2ccccc2n1` [I-3], in assay [1] (setting [3]), the half-inhibitory concentration (IC50) was determined as 8 ± 3 µM.
Same read-out and setting: as for `O=[N+]([O-])c1cccc(-c2nc(NCc3ccccc3)c3ccccc3n2)c1` [I-4], the figure is 4 ± 1.6 µM.
With `Cc1cccc(-c2nc(NCc3ccccc3)c3ccccc3n2)c1` [I-5], the IC50 in assay [1] (setting [3]) was determined as 17 ± 4 µM; on p97 (setting [4]), 4.2 ± 0.2 µM.
As to `Clc1ccc(-c2nc(NCc3ccccc3)c3ccccc3n2)cc1` [I-6], the IC50 in assay [1] (setting [3]) was determined as 20 ± 3 µM; at p97 (setting [4]) it was 5.5 ± 1.9 µM.
The corresponding values for `O=[N+]([O-])c1ccc(-c2nc(NCc3ccccc3)c3ccccc3n2)cc1` [I-8] are 19 ± 7 µM and 11 ± 6 µM.
The corresponding values for `COc1ccc(-c2nc(NCc3ccccc3)c3ccccc3n2)cc1` [I-9] are 15 ± 2 µM and 1.6 ± 0.3 µM.
The corresponding values for `Cc1ccc(-c2nc(NCc3ccccc3)c3ccccc3n2)cc1` [I-10] are 13 ± 2 µM and 5.7 ± 0.7 µM.
On to `Clc1ccc(-c2nc(NCc3ccccc3)c3ccccc3n2)cc1Cl` [I-11], for which the IC50 in assay [1] (setting [3]) came out at 37 ± 6 µM; at p97 (setting [4]) it was 7.1 ± 0.4 µM.
As to `Fc1ccc(CNc2nc(-c3ccccc3)nc3ccccc23)cc1` [I-13], the concentration for half-maximal inhibition (IC50) in assay [1] (setting [3]) was determined as 19 ± 3 µM; on p97 (setting [4]) it was 11 ± 3 µM.
For the compound `COc1ccc(-c2nc(NCc3ccc(F)cc3)c3ccccc3n2)cc1` [I-17], the IC50 in assay [1] (setting [3]) amounted to 9.8 ± 3 µM; at p97 (setting [4]), 7.8 ± 0.4 µM.
As to `COc1ccc(CNc2nc(-c3ccc(OC)cc3)nc3ccccc23)cc1` [I-20], the concentration for half-maximal inhibition (IC50) in assay [1] (setting [3]) was 15 ± 5 µM; at p97 (setting [4]), 13 ± 4 µM.
The corresponding values for `COc1ccc(-c2nc(NCc3ccc(C)cc3)c3ccccc3n2)cc1` [I-21] are 12 ± 2 µM and 8 ± 2 µM.
`COc1ccc(-c2nc(NCc3ccc(Cl)cc3)c3ccccc3n2)cc1` [I-22]: the IC50 worked out at 9.3 ± 1 µM in assay [1] (setting [3]) and 8 ± 2 µM on p97 (setting [4]).
For `Fc1ccc(CNc2nc(-c3ccc(Cl)cc3)nc3ccccc23)cc1` [I-23], the IC50 was determined as 20 ± 5 µM in assay [1] (setting [3]) and 8 ± 0.2 µM at p97 (setting [4]).
For the compound `Cc1cccc(-c2nc(NCc3ccc(F)cc3)c3ccccc3n2)c1` [I-24], the IC50 in assay [1] (setting [3]) turned out to be 12 ± 0.8 µM; on p97 (setting [4]) it was 15 ± 2 µM.
For `CN(Cc1ccccc1)c1nc(-c2ccc([N+](=O)[O-])cc2)nc2ccccc12` [I-28], the results for the half-maximal inhibitory concentration (IC50) (in assay [1] (setting [3]); at p97 (setting [4])) were 28 ± 4 µM and 8.4 ± 4 µM, respectively.
The corresponding values for `Cc1ccc(-c2nc(NC(C)c3ccccc3)c3ccccc3n2)cc1` (stereo not drawn) [I-30] are 17 ± 4 µM and 7 ± 4 µM.
For `Cc1ccc(-c2nc(NCc3ccccc3)c3ccc(Cl)cc3n2)cc1` [I-33], the half-maximal inhibitory concentration (IC50) in assay [1] (setting [2]) came to 24 ± 5 µM.

For orientation: IC50 means the concentration that gives 50% inhibition.
